Experiments:
[1] = target: T1, Amy A (α-amylase from Thermotoga maritima) (Thermotoga maritima, UniProt Q9S5Y2); assay: HPLC of remaining maltotriose (partially purified enzyme); format: biochemical; settings: 50 mM maltotriose, 75 °C, 4 h; water:DES cosolvent series, hydrolysis to maltose and glucose
T1 construct: gene TM_1840; heterologous expression in E. coli
T1 sequence (Q9S5Y2 27-556): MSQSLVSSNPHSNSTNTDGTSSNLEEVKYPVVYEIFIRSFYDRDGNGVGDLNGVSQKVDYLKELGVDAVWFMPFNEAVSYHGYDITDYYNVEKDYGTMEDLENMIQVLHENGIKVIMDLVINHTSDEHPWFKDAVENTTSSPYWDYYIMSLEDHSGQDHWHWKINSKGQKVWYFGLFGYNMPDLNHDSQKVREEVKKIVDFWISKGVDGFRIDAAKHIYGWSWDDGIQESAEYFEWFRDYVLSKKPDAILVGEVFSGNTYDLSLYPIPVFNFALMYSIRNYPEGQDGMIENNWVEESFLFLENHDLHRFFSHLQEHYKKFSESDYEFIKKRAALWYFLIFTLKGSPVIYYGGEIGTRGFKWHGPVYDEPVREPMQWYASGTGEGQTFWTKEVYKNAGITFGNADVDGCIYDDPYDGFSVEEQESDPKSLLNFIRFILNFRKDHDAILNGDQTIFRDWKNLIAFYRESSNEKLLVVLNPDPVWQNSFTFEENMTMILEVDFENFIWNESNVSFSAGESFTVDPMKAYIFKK

[2] = target: T1, Amy A (α-amylase from Thermotoga maritima); assay: HPLC of methyl glycosides after glucoamylase treatment; format: biochemical; settings: acceptor in alcoholysis; donor maltotriose 50 mM, 75 °C, choline chloride:urea (1:2):water

| SMILES | HPLC of remaining maltotriose (partially purified enzyme) [1] | HPLC of methyl glycosides after glucoamylase treatment [2] |
| --- | --- | --- |
| OC[C@H]1O[C@H](O[C@H]2[C@H](O)[C@@H](O)[C@@H](O[C@H]3[C@H](O)[C@@H](O)C(O)O[C@@H]3CO)O[C@@H]2CO)[C@H](O)[C@@H](O)[C@@H]1O (some centres unmarked) [maltotriose] | Substrate conversion was measured as the amount of maltotriose hydrolyzed to maltose and glucose. |  |
| CO [methanol] |  | Methyl-glucoside, methyl-maltoside, and interestingly, also methyl-maltotrioside were detected. |

Reference: article PMC6862209, “Deep Eutectic Solvents as New Reaction Media to Produce Alkyl-Glycosides Using Alpha-Amylase from Thermotoga maritima” (International Journal of Molecular Sciences, 2019)
